Source: patent US12435059B2, “AMP-activated protein kinase inhibitors and methods of making and using the same” (The Regents of the University of Colorado, priority 2019, dated 2025)
Where two headings read alike, the source gives them in different places.

What was measured:
[1] = tested on: K562 cells; assay: Annexin-V/DAPI flow cytometry viability of K562 cells under hypoxic culture conditions; assay type: cell-based; settings: K562, 5% O2, RPMI-1640, 72 hours
Description: FIG. 4 are a series of graphs showing the cell viability of K562 cells grown under hypoxic culture conditions and treated with compounds of the present disclosure. […] After pre-incubation cells were treated with the compounds of the present disclosure for 24 hours (left panel) and 72 hours (right panel) in a hypoxic environment. After treatment cells, were stained with Annexin-V-APC and DAPI in annexin buffer, incubated for 15 minutes at 4° C. and analyzed immediately by flow cytometry (Celesta, BD Bioscience). Viable cells were scored as Annexin V-negative and DAPI-negative population. A high-throughput sampler (BD Bioscience) was used to allow automated sampling processes. (n=3, error bars: ±S.D.).

[2] = molecular target: 468 kinases (Homo sapiens, UniProt Q6PHR2); assay: biochemical; assay type: binding; settings: ULK3; read-out: % Inhibition @ 100 nM
[3] = molecular target: 468 kinases (Homo sapiens, UniProt Q9BQI3); assay: biochemical; assay type: binding; settings: EIF2AK1; read-out: % Inhibition @ 100 nM
[4] = molecular target: 468 kinases (Homo sapiens, UniProt P49760); assay: biochemical; assay type: binding; settings: CLK2; read-out: % Inhibition @ 100 nM
[5] = molecular target: 468 kinases (Homo sapiens, UniProt P10721, A829P); assay: biochemical; assay type: binding; settings: KIT(A829P); read-out: % Inhibition @ 100 nM
[6] = molecular target: 468 kinases (Homo sapiens, UniProt P36894); assay: biochemical; assay type: binding; settings: BMPR1A; read-out: % Inhibition @ 100 nM
[7] = molecular target: 468 kinases (Homo sapiens, UniProt P00533, DEL746-750); assay: biochemical; assay type: binding; settings: EGFR(E746-A750del); read-out: % Inhibition @ 100 nM
[8] = molecular target: 468 kinases (Homo sapiens, UniProt Q8TBX8); assay: biochemical; assay type: binding; settings: PIP5K2C; read-out: % Inhibition @ 100 nM
[9] = molecular target: 468 kinases (Homo sapiens, UniProt Q15208); assay: biochemical; assay type: binding; settings: NDR1; read-out: % Inhibition @ 100 nM
[10] = molecular target: 468 kinases (Homo sapiens, UniProt P45983); assay: biochemical; assay type: binding; settings: JNK1; read-out: % Inhibition @ 100 nM
[11] = molecular target: 468 kinases (Homo sapiens, UniProt P10721, L576P); assay: biochemical; assay type: binding; settings: KIT(L576P); read-out: % Inhibition @ 100 nM
[12] = molecular target: 468 kinases (Homo sapiens, UniProt P07949, V804L); assay: biochemical; assay type: binding; settings: RET(V804L); read-out: % Inhibition @ 100 nM
[13] = molecular target: 468 kinases (Homo sapiens, UniProt Q15746); assay: biochemical; assay type: binding; settings: MYLK; read-out: % Inhibition @ 100 nM
[14] = molecular target: 468 kinases (Homo sapiens, UniProt O00141); assay: biochemical; assay type: binding; settings: SGK; read-out: % Inhibition @ 100 nM
[15] = molecular target: 468 kinases (Homo sapiens, UniProt P50750); assay: biochemical; assay type: binding; settings: CDK9; read-out: % Inhibition @ 100 nM
[16] = molecular target: 468 kinases (Homo sapiens, UniProt Q9H4B4); assay: biochemical; assay type: binding; settings: PLK3; read-out: % Inhibition @ 100 nM
[17] = molecular target: 468 kinases (Homo sapiens, UniProt O75582); assay: biochemical; assay type: binding; settings: read-out: % Inhibition @ 100 nM
[18] = molecular target: 468 kinases (Homo sapiens, UniProt Q96D53); assay: biochemical; assay type: binding; settings: ADCK4; read-out: % Inhibition @ 100 nM
[19] = molecular target: 468 kinases (Homo sapiens, UniProt Q13546); assay: biochemical; assay type: binding; settings: RIPK1; read-out: % Inhibition @ 100 nM
[20] = molecular target: 468 kinases (Homo sapiens, UniProt P52564); assay: biochemical; assay type: binding; settings: MEK6; read-out: % Inhibition @ 100 nM
[21] = molecular target: 468 kinases (Homo sapiens, UniProt O00506); assay: biochemical; assay type: binding; settings: YSK1; read-out: % Inhibition @ 100 nM
[22] = molecular target: 468 kinases (Homo sapiens, UniProt P36888, K663Q); assay: biochemical; assay type: binding; settings: FLT3(K663Q); read-out: % Inhibition @ 100 nM
[23] = molecular target: 468 kinases (Homo sapiens, UniProt Q9BWU1); assay: biochemical; assay type: binding; settings: CDK11; read-out: % Inhibition @ 100 nM
[24] = molecular target: 468 kinases (Homo sapiens, UniProt Q07002); assay: biochemical; assay type: binding; settings: PCTK3; read-out: % Inhibition @ 100 nM
[25] = molecular target: 468 kinases (Homo sapiens, UniProt O95835); assay: biochemical; assay type: binding; settings: LATS1; read-out: % Inhibition @ 100 nM
[26] = molecular target: 468 kinases (Homo sapiens, UniProt Q96L34); assay: biochemical; assay type: binding; settings: MARK4; read-out: % Inhibition @ 100 nM
[27] = molecular target: 468 kinases (Homo sapiens, UniProt Q9HAZ1); assay: biochemical; assay type: binding; settings: CLK4; read-out: % Inhibition @ 100 nM
[28] = molecular target: 468 kinases (Homo sapiens, UniProt Q9UPZ9); assay: biochemical; assay type: binding; settings: ICK; read-out: % Inhibition @ 100 nM
[29] = molecular target: 468 kinases (Homo sapiens, UniProt P30291); assay: biochemical; assay type: binding; settings: WEE1; read-out: % Inhibition @ 100 nM
[30] = molecular target: CSF1R (Homo sapiens (Human), UniProt P07333); assay: Kinome binding analysis at 100 nM, CSF1R; settings: read-out: Percentage inhibition at 100 nM, CSF1R
CSF1R, sequence (P07333 20-972): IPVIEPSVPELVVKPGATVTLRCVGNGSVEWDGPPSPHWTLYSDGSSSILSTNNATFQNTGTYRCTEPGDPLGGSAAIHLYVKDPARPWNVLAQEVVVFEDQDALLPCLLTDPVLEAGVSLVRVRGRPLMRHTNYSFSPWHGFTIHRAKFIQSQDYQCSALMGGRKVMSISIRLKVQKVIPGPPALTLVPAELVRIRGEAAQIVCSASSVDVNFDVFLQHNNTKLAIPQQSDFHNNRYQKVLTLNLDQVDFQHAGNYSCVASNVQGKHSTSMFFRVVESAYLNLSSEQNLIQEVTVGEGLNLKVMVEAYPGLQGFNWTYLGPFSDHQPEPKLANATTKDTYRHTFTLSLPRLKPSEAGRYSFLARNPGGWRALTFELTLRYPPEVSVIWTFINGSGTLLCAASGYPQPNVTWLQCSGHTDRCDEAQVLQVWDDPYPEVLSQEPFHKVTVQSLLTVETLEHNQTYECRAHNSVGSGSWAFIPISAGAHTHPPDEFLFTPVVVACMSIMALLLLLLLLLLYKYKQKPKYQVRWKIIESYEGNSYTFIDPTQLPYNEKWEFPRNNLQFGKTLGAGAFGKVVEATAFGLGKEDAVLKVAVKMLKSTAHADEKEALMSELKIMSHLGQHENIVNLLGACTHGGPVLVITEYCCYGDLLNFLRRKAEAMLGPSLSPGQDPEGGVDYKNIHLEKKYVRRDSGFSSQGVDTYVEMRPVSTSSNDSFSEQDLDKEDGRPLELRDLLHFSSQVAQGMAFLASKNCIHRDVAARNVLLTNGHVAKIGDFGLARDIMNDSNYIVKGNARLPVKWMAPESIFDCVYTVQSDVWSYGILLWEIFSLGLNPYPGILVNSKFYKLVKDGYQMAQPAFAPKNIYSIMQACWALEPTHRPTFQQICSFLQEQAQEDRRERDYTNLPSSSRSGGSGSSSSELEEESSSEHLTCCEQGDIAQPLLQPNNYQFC

468 kinases (Homo sapiens, UniProt P10721, A829P), sequence (P10721 26-976 A829P limits assumed): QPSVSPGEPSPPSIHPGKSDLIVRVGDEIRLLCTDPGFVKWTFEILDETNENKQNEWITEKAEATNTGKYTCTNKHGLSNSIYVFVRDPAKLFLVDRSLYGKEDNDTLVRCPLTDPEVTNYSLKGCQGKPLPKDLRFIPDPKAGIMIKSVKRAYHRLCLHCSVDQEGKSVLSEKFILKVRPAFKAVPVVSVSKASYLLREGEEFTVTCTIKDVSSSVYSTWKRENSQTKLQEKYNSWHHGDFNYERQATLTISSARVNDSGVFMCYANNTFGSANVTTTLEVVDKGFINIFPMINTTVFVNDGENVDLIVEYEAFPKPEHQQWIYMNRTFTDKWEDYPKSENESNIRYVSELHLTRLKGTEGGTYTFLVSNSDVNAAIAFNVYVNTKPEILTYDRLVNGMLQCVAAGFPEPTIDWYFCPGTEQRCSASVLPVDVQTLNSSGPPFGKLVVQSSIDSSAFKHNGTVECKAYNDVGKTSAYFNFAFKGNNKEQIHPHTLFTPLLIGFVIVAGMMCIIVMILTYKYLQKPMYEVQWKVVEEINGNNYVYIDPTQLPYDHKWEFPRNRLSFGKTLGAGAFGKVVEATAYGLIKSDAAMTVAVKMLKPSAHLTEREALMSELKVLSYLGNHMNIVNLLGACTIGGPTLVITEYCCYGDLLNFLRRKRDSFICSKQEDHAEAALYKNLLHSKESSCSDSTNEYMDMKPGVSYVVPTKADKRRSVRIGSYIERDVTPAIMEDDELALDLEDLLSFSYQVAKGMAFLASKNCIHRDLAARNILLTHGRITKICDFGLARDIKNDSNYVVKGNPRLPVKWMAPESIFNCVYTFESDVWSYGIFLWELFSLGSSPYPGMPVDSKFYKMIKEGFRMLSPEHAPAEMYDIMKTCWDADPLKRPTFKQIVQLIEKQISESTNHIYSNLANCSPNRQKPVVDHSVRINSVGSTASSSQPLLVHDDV
468 kinases (Homo sapiens, UniProt P36894), sequence (P36894 24-532 limits assumed): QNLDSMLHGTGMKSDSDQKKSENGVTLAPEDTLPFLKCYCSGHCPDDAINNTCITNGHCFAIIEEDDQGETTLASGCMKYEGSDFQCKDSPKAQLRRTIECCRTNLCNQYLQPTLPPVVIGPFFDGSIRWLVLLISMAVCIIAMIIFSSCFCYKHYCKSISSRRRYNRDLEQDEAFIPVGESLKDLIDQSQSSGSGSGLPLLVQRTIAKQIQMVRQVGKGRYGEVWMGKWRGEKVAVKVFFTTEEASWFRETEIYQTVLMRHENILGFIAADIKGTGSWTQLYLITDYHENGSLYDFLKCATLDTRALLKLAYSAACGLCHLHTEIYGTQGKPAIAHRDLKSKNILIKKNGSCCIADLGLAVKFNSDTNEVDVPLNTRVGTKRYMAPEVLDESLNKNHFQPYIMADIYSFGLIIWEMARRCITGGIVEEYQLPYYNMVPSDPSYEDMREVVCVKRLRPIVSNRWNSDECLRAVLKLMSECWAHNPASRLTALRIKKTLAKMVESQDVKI
468 kinases (Homo sapiens, UniProt Q8TBX8), sequence (Q8TBX8 2-421 limits assumed): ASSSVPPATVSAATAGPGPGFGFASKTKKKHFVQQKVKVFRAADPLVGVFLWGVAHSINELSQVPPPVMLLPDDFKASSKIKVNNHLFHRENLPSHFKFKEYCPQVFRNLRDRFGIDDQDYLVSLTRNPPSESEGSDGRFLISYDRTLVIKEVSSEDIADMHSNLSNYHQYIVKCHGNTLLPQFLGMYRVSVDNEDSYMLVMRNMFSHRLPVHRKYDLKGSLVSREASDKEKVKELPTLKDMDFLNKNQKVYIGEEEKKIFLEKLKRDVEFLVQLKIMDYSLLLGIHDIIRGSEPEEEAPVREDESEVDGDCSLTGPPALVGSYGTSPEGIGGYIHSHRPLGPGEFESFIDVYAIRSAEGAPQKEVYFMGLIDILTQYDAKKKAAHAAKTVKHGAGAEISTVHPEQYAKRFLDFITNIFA
468 kinases (Homo sapiens, UniProt P00533, DEL746-750), sequence (P00533 with tags, fused parts or gaps DEL746-750 limits assumed): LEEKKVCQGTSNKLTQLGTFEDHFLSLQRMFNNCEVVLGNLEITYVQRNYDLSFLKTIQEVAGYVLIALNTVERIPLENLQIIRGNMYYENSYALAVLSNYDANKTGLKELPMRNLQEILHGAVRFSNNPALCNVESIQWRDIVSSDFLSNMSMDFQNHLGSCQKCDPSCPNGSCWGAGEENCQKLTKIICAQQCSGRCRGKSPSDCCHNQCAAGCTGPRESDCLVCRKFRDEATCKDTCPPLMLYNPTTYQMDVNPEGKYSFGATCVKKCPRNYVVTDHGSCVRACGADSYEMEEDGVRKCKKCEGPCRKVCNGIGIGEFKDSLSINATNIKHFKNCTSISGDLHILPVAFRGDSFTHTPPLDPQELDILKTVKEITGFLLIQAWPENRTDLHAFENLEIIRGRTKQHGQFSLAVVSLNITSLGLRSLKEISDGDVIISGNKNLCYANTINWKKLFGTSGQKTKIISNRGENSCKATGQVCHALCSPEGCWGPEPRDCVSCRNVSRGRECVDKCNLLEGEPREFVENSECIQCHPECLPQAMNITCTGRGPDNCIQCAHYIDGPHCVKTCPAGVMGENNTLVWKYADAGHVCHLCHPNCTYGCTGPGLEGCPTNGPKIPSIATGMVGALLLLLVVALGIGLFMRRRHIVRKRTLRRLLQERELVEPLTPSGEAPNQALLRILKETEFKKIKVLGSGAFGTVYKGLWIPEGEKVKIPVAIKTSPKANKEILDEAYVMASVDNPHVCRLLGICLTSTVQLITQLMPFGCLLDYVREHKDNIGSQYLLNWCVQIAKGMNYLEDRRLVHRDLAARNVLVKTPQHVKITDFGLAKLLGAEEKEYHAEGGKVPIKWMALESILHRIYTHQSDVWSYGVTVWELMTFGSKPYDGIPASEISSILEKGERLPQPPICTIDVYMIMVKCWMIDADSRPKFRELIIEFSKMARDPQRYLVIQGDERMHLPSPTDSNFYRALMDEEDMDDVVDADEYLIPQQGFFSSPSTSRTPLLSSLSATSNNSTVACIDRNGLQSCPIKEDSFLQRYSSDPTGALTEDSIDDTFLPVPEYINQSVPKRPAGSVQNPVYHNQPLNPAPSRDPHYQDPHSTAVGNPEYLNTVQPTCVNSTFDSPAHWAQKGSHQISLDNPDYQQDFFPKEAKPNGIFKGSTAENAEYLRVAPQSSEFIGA
468 kinases (Homo sapiens, UniProt Q15208), sequence (Q15208 2-465 limits assumed): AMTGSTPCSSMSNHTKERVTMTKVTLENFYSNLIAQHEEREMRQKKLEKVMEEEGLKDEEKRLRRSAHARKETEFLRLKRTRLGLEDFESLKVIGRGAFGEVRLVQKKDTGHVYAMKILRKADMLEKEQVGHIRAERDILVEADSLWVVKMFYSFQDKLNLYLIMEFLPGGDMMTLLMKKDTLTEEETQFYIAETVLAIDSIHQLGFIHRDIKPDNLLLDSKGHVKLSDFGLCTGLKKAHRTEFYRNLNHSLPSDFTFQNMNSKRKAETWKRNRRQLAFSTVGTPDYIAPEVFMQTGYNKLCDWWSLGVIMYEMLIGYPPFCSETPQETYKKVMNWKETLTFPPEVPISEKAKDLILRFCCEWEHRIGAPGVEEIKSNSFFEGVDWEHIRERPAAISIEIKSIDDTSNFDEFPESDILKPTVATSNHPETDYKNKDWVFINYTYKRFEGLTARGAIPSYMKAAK
468 kinases (Homo sapiens, UniProt P10721, L576P), sequence (P10721 26-976 L576P limits assumed): as the sequence (P10721 26-976 A829P limits assumed) above, with L551P, P804A counted along it

CCN(CC)CCNC(=O)c1c(C)[nH]c(/C=C2\C(=O)Nc3ccc(CCO)cc32)c1C [Compound No. 10, (Z)—N-(2-(Diethylamino)ethyl)-5-((5-(2-hydroxyethyl)-2-oxoindolin-3-ylidene)methyl)-2,4-dimethyl-1H-pyrrole-3-carboxamide] was tested, and the “Cell viability under hypoxic conditions after 72 hours” value [1] was “marked decrease in cell viability”, the inhibition at 0.1 µM [2] was 87% and the inhibition at 0.1 µM [3] was 0%. For the same compound, the inhibition at 0.1 µM [4] was 93.8%, the inhibition at 0.1 µM [5] was 0% and the inhibition at 0.1 µM [6] was 0%. For the same compound, the inhibition at 0.1 µM [7] was 32%, the inhibition at 0.1 µM [8] was 0% and the inhibition at 0.1 µM [9] was 34%. It also gave an inhibition at 0.1 µM [10] of 9%, an inhibition at 0.1 µM [11] of 88% and an inhibition at 0.1 µM [12] of 91.1%. For the same compound, the inhibition at 0.1 µM [13] was 49%, the inhibition at 0.1 µM [14] was 2% and the inhibition at 0.1 µM [15] was 0%. It also gave an inhibition at 0.1 µM [16] of 4%, an inhibition at 0.1 µM ([17]; RPS6KA5(Kin.Dom.1-N-terminal)) of 11% and an inhibition at 0.1 µM ([17]; RPS6KA5(Kin.Dom.2-C-terminal)) of 0%. The inhibition at 0.1 µM [18] was 0%, the inhibition at 0.1 µM [19] was 1% and the inhibition at 0.1 µM [20] was 11%. It also gave an inhibition at 0.1 µM [21] of 21%, an inhibition at 0.1 µM [22] of 96.4% and an inhibition at 0.1 µM [23] of 12%. The inhibition at 0.1 µM [24] was 12%, the inhibition at 0.1 µM [25] was 43% and the inhibition at 0.1 µM [26] was 41%. It also gave an inhibition at 0.1 µM [27] of 95.5%, an inhibition at 0.1 µM [28] of 0% and an inhibition at 0.1 µM [29] of 15%. It also gave an inhibition at 0.1 µM [30] of 24%.
With CCN(CC)CCNC(=O)c1c(C)[nH]c(/C=C2\C(=O)Nc3ccc(CCC(N)=O)cc32)c1C [Compound No. 16, (Z)-5-((5-(3-Amino-3-oxopropyl)-2-oxoindolin-3-ylidene)methyl)-N-(2-(diethylamino)ethyl)-2,4-dimethyl-1H-pyrrole-3-carboxamide] the “Cell viability under hypoxic conditions after 72 hours” value [1] was “no measurable impact on cell viability”, the inhibition at 0.1 µM [2] was 25% and the inhibition at 0.1 µM [3] was 42%. It also gave an inhibition at 0.1 µM [4] of 100%, an inhibition at 0.1 µM [5] of 35% and an inhibition at 0.1 µM [6] of 0%. It also gave an inhibition at 0.1 µM [7] of 7%, an inhibition at 0.1 µM [8] of 1% and an inhibition at 0.1 µM [9] of 20%. For the same compound, the inhibition at 0.1 µM [10] was 7%, the inhibition at 0.1 µM [11] was 12% and the inhibition at 0.1 µM [12] was 86%. It also gave an inhibition at 0.1 µM [13] of 34%, an inhibition at 0.1 µM [14] of 47% and an inhibition at 0.1 µM [15] of 6%. It also gave an inhibition at 0.1 µM [16] of 16%, an inhibition at 0.1 µM ([17]; RPS6KA5(Kin.Dom.1-N-terminal)) of 0% and an inhibition at 0.1 µM ([17]; RPS6KA5(Kin.Dom.2-C-terminal)) of 17%. For the same compound, the inhibition at 0.1 µM [18] was 0%, the inhibition at 0.1 µM [19] was 19% and the inhibition at 0.1 µM [20] was 25%. The inhibition at 0.1 µM [21] was 22%, the inhibition at 0.1 µM [22] was 92.9% and the inhibition at 0.1 µM [23] was 3%. It also gave an inhibition at 0.1 µM [24] of 9%, an inhibition at 0.1 µM [25] of 17% and an inhibition at 0.1 µM [26] of 12%. For the same compound, the inhibition at 0.1 µM [27] was 96.2%, the inhibition at 0.1 µM [28] was 88% and the inhibition at 0.1 µM [29] was 24%. For the same compound, the inhibition at 0.1 µM [30] was 18%.
